Experimental data published in PubChem BioAssay (NCI).
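Dose response: 5 concentrations. Exposure: 48 h. Format: 96-well plates. Endpoint: linear interpolation; highest concentration if not reached. At the GI50, growth is halved. At the TGI there is no net growth.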

Columns and labels:
Assay in all cases: NCI anticancer screen, dose series, 48 h
A498 renal = test system: A498 renal
HOP-92 NSCLC = test system: HOP-92 NSCLC
MALME-3M melanoma = test system: MALME-3M melanoma
SW-620 colon = test system: SW-620 colon
MDA-MB-435 = test system: MDA-MB-435
M14 melanoma = test system: M14 melanoma
UO-31 renal = test system: UO-31 renal
KM12 colon = test system: KM12 colon
ACHN renal = test system: ACHN renal
U251 CNS = test system: U251 CNS
RXF 393 renal = test system: RXF 393 renal
IGROV1 ovarian = test system: IGROV1 ovarian
SN12C renal = test system: SN12C renal
DU-145 prostate = test system: DU-145 prostate
OVCAR-3 ovarian = test system: OVCAR-3 ovarian
MCF7 breast = test system: MCF7 breast
NCI-H226 lung = test system: NCI-H226 lung
HCT-116 colon = test system: HCT-116 colon
CAKI-1 renal = test system: CAKI-1 renal
T-47D breast = test system: T-47D breast
SF-295 CNS = test system: SF-295 CNS
UACC-257 melanoma = test system: UACC-257 melanoma
786-0 renal = test system: 786-0 renal
COLO 205 colon = test system: COLO 205 colon
SF-268 CNS = test system: SF-268 CNS
HCT-15 colon = test system: HCT-15 colon
UACC-62 melanoma = test system: UACC-62 melanoma
SNB-19 CNS = test system: SNB-19 CNS
NCI/ADR-RES ovarian = test system: NCI/ADR-RES ovarian
A549 NSCLC = test system: A549 NSCLC
NCI-H23 lung = test system: NCI-H23 lung
SK-MEL-2 melanoma = test system: SK-MEL-2 melanoma
LOX IMVI melanoma = test system: LOX IMVI melanoma
EKVX NSCLC = test system: EKVX NSCLC
SK-MEL-28 melanoma = test system: SK-MEL-28 melanoma
BT-549 breast = test system: BT-549 breast
HS 578T breast = test system: HS 578T breast
SK-MEL-5 melanoma = test system: SK-MEL-5 melanoma
OVCAR-4 ovarian = test system: OVCAR-4 ovarian
MDA-MB-231 breast = test system: MDA-MB-231 breast
SK-OV-3 ovarian = test system: SK-OV-3 ovarian
K-562 leukemia = test system: K-562 leukemia
HOP-62 NSCLC = test system: HOP-62 NSCLC
SNB-75 CNS = test system: SNB-75 CNS
HT29 colon = test system: HT29 colon
HCC-2998 colon = test system: HCC-2998 colon
TK-10 renal = test system: TK-10 renal
SF-539 CNS = test system: SF-539 CNS
NCI-H522 lung = test system: NCI-H522 lung
OVCAR-8 ovarian = test system: OVCAR-8 ovarian
OVCAR-5 ovarian = test system: OVCAR-5 ovarian
PC-3 prostate = test system: PC-3 prostate
NCI-H460 lung = test system: NCI-H460 lung
SR leukemia = test system: SR leukemia
CCRF-CEM leukemia = test system: CCRF-CEM leukemia
RPMI-8226 leukemia = test system: RPMI-8226 leukemia
HL-60(TB) leukemia = test system: HL-60(TB) leukemia
MOLT-4 leukemia = test system: MOLT-4 leukemia

COc1cc2c3c(n(CCCCNC(=O)OC(C)(C)C)c(=O)c2cc1OC)-c1cc2c(cc1C3=O)OCO2
GI50 (A498 renal): > 100 µM | TGI (A498 renal): > 100 µM | GI50 (HOP-92 NSCLC): 60.3 µM | TGI (HOP-92 NSCLC): > 100 µM | GI50 (MALME-3M melanoma): > 100 µM | TGI (MALME-3M melanoma): > 100 µM | GI50 (SW-620 colon): > 100 µM | TGI (SW-620 colon): > 100 µM | GI50 (MDA-MB-435): > 100 µM | TGI (MDA-MB-435): > 100 µM | GI50 (M14 melanoma): > 100 µM | TGI (M14 melanoma): > 100 µM | GI50 (UO-31 renal): > 100 µM | TGI (UO-31 renal): > 100 µM | GI50 (KM12 colon): > 100 µM | TGI (KM12 colon): > 100 µM | GI50 (ACHN renal): 20.1 µM | TGI (ACHN renal): > 100 µM | GI50 (U251 CNS): > 100 µM | TGI (U251 CNS): > 100 µM | GI50 (RXF 393 renal): 17.5 µM | TGI (RXF 393 renal): 62.1 µM | GI50 (IGROV1 ovarian): > 100 µM | TGI (IGROV1 ovarian): > 100 µM | GI50 (SN12C renal): 78 µM | TGI (SN12C renal): > 100 µM | GI50 (DU-145 prostate): > 100 µM | TGI (DU-145 prostate): > 100 µM | GI50 (OVCAR-3 ovarian): 0.225 µM | TGI (OVCAR-3 ovarian): 65.9 µM | GI50 (MCF7 breast): 5.15 µM | TGI (MCF7 breast): > 100 µM | GI50 (NCI-H226 lung): > 100 µM | TGI (NCI-H226 lung): > 100 µM | GI50 (HCT-116 colon): > 100 µM | TGI (HCT-116 colon): > 100 µM | GI50 (CAKI-1 renal): 3.45 µM | TGI (CAKI-1 renal): 74.5 µM | GI50 (T-47D breast): > 100 µM | TGI (T-47D breast): > 100 µM | GI50 (SF-295 CNS): 16.1 µM | TGI (SF-295 CNS): > 100 µM | GI50 (UACC-257 melanoma): > 100 µM | TGI (UACC-257 melanoma): > 100 µM | GI50 (786-0 renal): 25 µM | TGI (786-0 renal): > 100 µM | GI50 (COLO 205 colon): > 100 µM | TGI (COLO 205 colon): > 100 µM | GI50 (SF-268 CNS): 15.3 µM | TGI (SF-268 CNS): > 100 µM | GI50 (HCT-15 colon): > 100 µM | TGI (HCT-15 colon): > 100 µM | GI50 (UACC-62 melanoma): > 100 µM | TGI (UACC-62 melanoma): > 100 µM | GI50 (SNB-19 CNS): > 100 µM | TGI (SNB-19 CNS): > 100 µM | GI50 (NCI/ADR-RES ovarian): > 100 µM | TGI (NCI/ADR-RES ovarian): > 100 µM | GI50 (A549 NSCLC): > 100 µM | TGI (A549 NSCLC): > 100 µM | GI50 (NCI-H23 lung): > 100 µM | TGI (NCI-H23 lung): > 100 µM | GI50 (SK-MEL-2 melanoma): > 100 µM | TGI (SK-MEL-2 melanoma): > 100 µM | GI50 (LOX IMVI melanoma): > 100 µM | TGI (LOX IMVI melanoma): > 100 µM | GI50 (EKVX NSCLC): > 100 µM | TGI (EKVX NSCLC): > 100 µM | GI50 (SK-MEL-28 melanoma): > 100 µM | TGI (SK-MEL-28 melanoma): > 100 µM | GI50 (BT-549 breast): > 100 µM | TGI (BT-549 breast): > 100 µM | GI50 (HS 578T breast): 59 µM | TGI (HS 578T breast): > 100 µM | GI50 (SK-MEL-5 melanoma): > 100 µM | TGI (SK-MEL-5 melanoma): > 100 µM | GI50 (OVCAR-4 ovarian): > 100 µM | TGI (OVCAR-4 ovarian): > 100 µM | GI50 (MDA-MB-231 breast): > 100 µM | TGI (MDA-MB-231 breast): > 100 µM | GI50 (SK-OV-3 ovarian): > 100 µM | TGI (SK-OV-3 ovarian): > 100 µM | GI50 (K-562 leukemia): > 100 µM | TGI (K-562 leukemia): > 100 µM | GI50 (HOP-62 NSCLC): 28.1 µM | TGI (HOP-62 NSCLC): > 100 µM | GI50 (SNB-75 CNS): 33.2 µM | TGI (SNB-75 CNS): > 100 µM | GI50 (HT29 colon): > 100 µM | TGI (HT29 colon): > 100 µM | GI50 (HCC-2998 colon): > 100 µM | TGI (HCC-2998 colon): > 100 µM | GI50 (TK-10 renal): > 100 µM | TGI (TK-10 renal): > 100 µM | GI50 (SF-539 CNS): 8.39 µM | TGI (SF-539 CNS): > 100 µM | GI50 (NCI-H522 lung): > 100 µM | TGI (NCI-H522 lung): > 100 µM | GI50 (OVCAR-8 ovarian): > 100 µM | TGI (OVCAR-8 ovarian): > 100 µM | GI50 (OVCAR-5 ovarian): > 100 µM | TGI (OVCAR-5 ovarian): > 100 µM | GI50 (PC-3 prostate): > 100 µM | TGI (PC-3 prostate): > 100 µM | GI50 (NCI-H460 lung): 5.66 µM | TGI (NCI-H460 lung): > 100 µM

Cc1nc2ccccc2c(=O)n1NC(=O)c1ccccc1[N+](=O)[O-]
TGI (A498 renal): > 100 µM | TGI (HOP-92 NSCLC): > 100 µM | TGI (MALME-3M melanoma): > 100 µM | TGI (SW-620 colon): > 100 µM | TGI (MDA-MB-435): > 100 µM | TGI (SR leukemia): > 100 µM | TGI (M14 melanoma): > 100 µM | TGI (UO-31 renal): > 100 µM | TGI (KM12 colon): > 100 µM | TGI (ACHN renal): > 100 µM | TGI (U251 CNS): > 100 µM | TGI (IGROV1 ovarian): > 100 µM | TGI (SN12C renal): > 100 µM | TGI (CCRF-CEM leukemia): > 100 µM | TGI (DU-145 prostate): > 100 µM | TGI (RPMI-8226 leukemia): > 100 µM | TGI (OVCAR-3 ovarian): > 100 µM | TGI (MCF7 breast): > 100 µM | TGI (NCI-H226 lung): > 100 µM | TGI (HCT-116 colon): > 100 µM | TGI (T-47D breast): > 100 µM | TGI (SF-295 CNS): > 100 µM | TGI (UACC-257 melanoma): > 100 µM | TGI (786-0 renal): > 100 µM | TGI (SF-268 CNS): > 100 µM | TGI (HCT-15 colon): > 100 µM | TGI (UACC-62 melanoma): > 100 µM | TGI (SNB-19 CNS): > 100 µM | TGI (NCI/ADR-RES ovarian): > 100 µM | TGI (A549 NSCLC): > 100 µM | TGI (NCI-H23 lung): > 100 µM | TGI (LOX IMVI melanoma): > 100 µM | TGI (EKVX NSCLC): > 100 µM | TGI (SK-MEL-28 melanoma): > 100 µM | TGI (BT-549 breast): > 100 µM | TGI (HS 578T breast): > 100 µM | TGI (SK-MEL-5 melanoma): > 100 µM | TGI (OVCAR-4 ovarian): > 100 µM | TGI (MDA-MB-231 breast): > 100 µM | TGI (SK-OV-3 ovarian): > 100 µM | TGI (K-562 leukemia): > 100 µM | TGI (HOP-62 NSCLC): > 100 µM | TGI (SNB-75 CNS): > 100 µM | TGI (HT29 colon): > 100 µM | TGI (HCC-2998 colon): > 100 µM | TGI (HL-60(TB) leukemia): > 100 µM | TGI (TK-10 renal): > 100 µM | TGI (SF-539 CNS): > 100 µM | TGI (MOLT-4 leukemia): > 100 µM | TGI (NCI-H522 lung): > 100 µM | TGI (OVCAR-5 ovarian): > 100 µM | TGI (PC-3 prostate): > 100 µM | TGI (NCI-H460 lung): > 100 µM
